Results from US5272268A, “Dipeptide derivatives” (Shionogi & Co., Ltd., priority 1990, dated 1993).
Residue numbers refer to the chain shown, from its start.

What was measured:
[1] = molecular target: T1, intrinsic renin contained in the renatured human plasma (Homo sapiens, UniProt P00797); assay: Renin inhibition in vitro (angiotensin I production in renatured human plasma, RIA); assay type: biochemical; conditions: 60 minutes incubation, read-out: IC50 (concentration which inhibits renin activity by 50%)
T1 construct: intrinsic renin contained in the renatured plasma; tissue Ortho Bi-Level Plasma Renin Control; host or cells: human plasma (lyophilized, renatured in water)
T1 sequence (P00797 67-406): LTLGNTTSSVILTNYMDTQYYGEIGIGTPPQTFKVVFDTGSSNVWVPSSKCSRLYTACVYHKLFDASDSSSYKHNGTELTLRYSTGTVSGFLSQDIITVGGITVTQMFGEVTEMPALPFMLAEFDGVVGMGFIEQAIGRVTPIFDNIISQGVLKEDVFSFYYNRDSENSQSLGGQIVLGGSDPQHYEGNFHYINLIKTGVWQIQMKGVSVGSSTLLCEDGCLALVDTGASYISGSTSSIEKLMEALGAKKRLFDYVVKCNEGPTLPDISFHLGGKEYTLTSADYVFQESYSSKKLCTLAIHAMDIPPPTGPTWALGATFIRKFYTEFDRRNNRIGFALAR
Protocol: Commercially available lyophilized human plasma (Ortho, Bi-Level Plasma Renin Control) was renatured by dissolving in water. Angiotensinogen was allowed to react with intrinsic renin contained in the renatured plasma to generate angiotensin I (AI), which was quantitatively measured with radioimmunoassay (RIA). Thus, potency of the plasma renin was determined on the basis of the AI production. For this purpose, Renin RIA kit (RENIN' RIABEAD®) manufacture by Dinabott was used. All of the reagents necessary for the measurement of the AI production were available from the attachment of the kit, and the measurement was conducted according to the manufacturer's direction.
To the plasma (0.2 ml) were added all of the reagents, and the mixture was combined with either of sample solutions (0.002 ml) of various concentrations which had been prepared by dissolving a test compound in different amount of ethanol. Ethanol (0.002 ml) containing no test compound was used as a control solution. The amount of AI produced was measured after 60 minutes incubation. Renin inhibition potency of test compound was determined by comparing the amount of AI produced by a sample solution with that produced by a control solution.

Plasma renin activity = molecular target: T2, Plasma renin activity (Macaca fascicularis, UniProt Q6DLS0); assay: Renin inhibition in vivo (plasma renin activity after oral administration to hyperrenin monkeys); set-up: species or system Crab-eating monkeys (Cynomolgus monkeys); conditions: low sodium diet + furosemide; for Renin inhibition potency, 4 h: 4 h after administration; for Renin inhibition potency, 8 h: 8 h after administration
T2 construct: Two milliliters of blood was collected from femoral vein; from tissue; host or cells: plasma of cynomolgus monkeys made hyperreninemic by low sodium diet and furosemide
T2 sequence (Q6DLS0 67-406): T1 sequence (P00797 67-406) with T2A, I148L, S169A
Protocol: Crab-eating monkeys (Cynomolgus monkeys) (2.8-5.0 kg) were fed on low sodium diet (Na 7.15 mg/100 g feed) for six days, during which the monkeys intramuscularly received furosemide (2 mg/kg body weight) every other day from the second day of the experiment, in order to make the monkeys hyperrenin condition.
After seven days from the low sodium feeding, the monkeys were restrained on a monkey chair. Compounds to be tested are dissolved in 0.1 M citric acid/physiological saline or suspended in water with addition of β-cyclodextrin, and orally administered to the monkeys using a stomach probe (15 mg/kg body weight). […] For the blood collection, an injection syringe containing 30 μl of 6% aqueous EDTA·2Na solution was used. The collected blood was transferred into a test tube and centrifuged (3000 rpm, 10 minutes) at 4° C., and the resultant supernatant was used to determine the renin content. Plasma renin activity (AI(ng)/ml/h value) was measured using Radioimmunoassy kit commercially available from Dinabott Co. in the same manner as in the foregoing in vitro test. Renin inhibition potencies of the compounds tested, which were expressed as a percentage of renin activity relative to the activity before the administration, are listed in Table 12.

O=C(C[C@H](O)[C@H](CC1CCCCC1)NC(=O)[C@H](Cc1cscn1)NC(=O)[C@@H](CC(=O)N1CCOCC1)Cc1cccc2ccccc12)NCCN1CCOCC1 [ES-6864, reference compound]
IC50 [1]: 3.75 nM

CC(C)(C)S(=O)(=O)C[C@@H](Cc1ccccc1)C(=O)N[C@@H](Cc1c[nH]cn1)C(=O)N[C@@H](CC1CCCCC1)[C@@H](O)CC(=O)c1ccncc1 [Example 1, 3-t-Butylsulfonyl-2(S)-phenylmethylpropionyl-His-1(S)-cyclohexylmethyl-2(S)-hydroxy-4-oxo-4-(4-pyridyl)butylamide]
IC50 [1]: 6.09 nM
Renin inhibition potency, Max (Plasma renin activity; 30 mg/kg orally): 33%
Renin inhibition potency, Mean (Plasma renin activity; 30 mg/kg orally): 22%
Renin inhibition potency, 4 h (Plasma renin activity; 30 mg/kg orally): 22%

COc1ccc(C(=O)C[C@H](O)[C@H](CC2CCCCC2)NC(=O)[C@H](Cc2c[nH]cn2)NC(=O)[C@H](Cc2ccccc2)CS(=O)(=O)C(C)(C)C)cc1 [Example 22]
IC50 [1]: 39.2 nM

CC(C)S(=O)(=O)C[C@@H](Cc1ccccc1)C(=O)N[C@@H](Cc1c[nH]cn1)C(=O)N[C@@H](CC1CCCCC1)[C@@H](O)CC(=O)c1ccccc1 [Example 37]
IC50 [1]: 14.5 nM

CCS(=O)(=O)C[C@@H](Cc1ccccc1)C(=O)N[C@@H](Cc1c[nH]cn1)C(=O)N[C@@H](CC1CCCCC1)[C@@H](O)CC(=O)c1ccccc1 [Example 38]
IC50 [1]: 39.2 nM

O=C(C[C@H](O)[C@H](CC1CCCCC1)NC(=O)[C@H](Cc1c[nH]cn1)NC(=O)[C@@H](CC(=O)N1CCOCC1)Cc1cccc2ccccc12)c1ccccc1 [Example 40]
IC50 [1]: 18.1 nM
Renin inhibition potency, Max (Plasma renin activity; 15 mg/kg orally): 44%
Renin inhibition potency, Mean (Plasma renin activity; 15 mg/kg orally): 30%
Renin inhibition potency, 4 h (Plasma renin activity; 15 mg/kg orally): 44%

O=C(C[C@H](O)[C@H](CC1CCCCC1)NC(=O)[C@H](Cc1c[nH]cn1)NC(=O)[C@@H](CC(=O)N1CCOCC1)Cc1cccc2ccccc12)c1ccncc1 [Example 42]
IC50 [1]: 13 nM

O=C(N[C@@H](CC1CCCCC1)[C@@H](O)CNS(=O)(=O)N1CCOCC1)[C@H](Cc1cscn1)NC(=O)[C@H](Cc1ccccc1)NS(=O)(=O)N1CCOCC1 [Example 53]
IC50 [1]: 0.36 nM
Renin inhibition potency, Max (Plasma renin activity; 15 mg/kg orally): 96%
Renin inhibition potency, Mean (Plasma renin activity; 15 mg/kg orally): 85%
Renin inhibition potency, 4 h (Plasma renin activity; 15 mg/kg orally): 94%
Renin inhibition potency, 8 h (Plasma renin activity; 15 mg/kg orally): 73%

CN(C)S(=O)(=O)NCC(O)C(CC1CCCCC1)NC(=O)C(Cc1cscn1)NC(=O)C(Cc1ccccc1)NS(=O)(=O)N1CCOCC1 (centres unmarked) [Example 56]
IC50 [1]: 0.7 nM
Renin inhibition potency, Max (Plasma renin activity; 15 mg/kg orally): 93%
Renin inhibition potency, Mean (Plasma renin activity; 15 mg/kg orally): 72%
Renin inhibition potency, 4 h (Plasma renin activity; 15 mg/kg orally): 82%
Renin inhibition potency, 8 h (Plasma renin activity; 15 mg/kg orally): 85%

CC(C)(C)S(=O)(=O)C[C@@H](Cc1ccccc1)C(=O)N[C@@H](Cc1cscn1)C(=O)N[C@@H](CC1CCCCC1)[C@@H](O)CNS(=O)(=O)c1ccccc1 [Example 62]
IC50 [1]: 1.24 nM

CC(C)(C)S(=O)(=O)CC(Cc1ccccc1)C(=O)NC(Cc1cscn1)C(=O)NC(CC1CCCCC1)C(O)CNS(C)(=O)=O (centres unmarked) [Example 69]
IC50 [1]: 0.53 nM

CC(C)OC(=O)C(O)C(CC1CCCCC1)NC(=O)[C@H](Cc1cnc[nH]1)NC(=O)[C@@H](CC(=O)N1CCOCC1)Cc1cccc2ccccc12 (some centres unmarked) [KRI-1314, reference compound]
IC50 [1]: 21.3 nM
